Values joined by “and” are separate entries in the source; they are usually repeats but may differ in a detail not shown here. Equal entries are not always repeated.
How the values were obtained:
[1] = target: T1, angiotensin II receptor, site 2 (AT-2 receptor) (Rattus norvegicus, UniProt P35351); assay: Receptor assay using rat adrenal gland preparation (125I-Angiotensin II binding), site 2
T1 construct: Adrenal membranes for the receptor assay were readied first by placing cleaned, whole adrenal glands in microcentrifuge tubes; from tissue; host or cells: rat adrenal glands (whole), membranes
T1 sequence (P35351 1-363): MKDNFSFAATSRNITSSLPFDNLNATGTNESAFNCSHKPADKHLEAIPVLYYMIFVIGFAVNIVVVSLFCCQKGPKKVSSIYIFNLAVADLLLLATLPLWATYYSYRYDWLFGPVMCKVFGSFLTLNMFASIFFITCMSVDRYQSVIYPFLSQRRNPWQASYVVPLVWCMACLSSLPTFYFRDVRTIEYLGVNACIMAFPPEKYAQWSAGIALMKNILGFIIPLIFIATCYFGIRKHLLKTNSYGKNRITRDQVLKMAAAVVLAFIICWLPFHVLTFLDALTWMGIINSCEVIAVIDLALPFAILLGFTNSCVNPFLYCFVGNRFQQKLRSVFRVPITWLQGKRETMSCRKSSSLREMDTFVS
Text: Angiotensin II (AII) is a powerful arterial vasoconstrictor, and it exerts its action by interacting with specific receptors present on cell membranes. The compounds of the present invention are competitive antagonists of AII at receptor sites. The usefulness of compounds as AII antagonists may be determined from the results of certain receptor binding assays. The initial assay is that using rat adrenal glands and the results of this assay are described herein.
Receptor assay using rat adrenal gland preparation
Adrenal membranes for the receptor assay were readied first by placing cleaned, whole adrenal glands in microcentrifuge tubes (20 glands per tube), and freezing and storing under liquid nitrogen. As needed, a microcentrifuge tube of adrenal glands was homogenized in 20 ml 50 mM Tris-HCl pH 7.7 and centrifuged at 20,000 rpm for 15 minutes at 4° C. […]
For the assay, the adrenal membrane preparation in one vial was resuspended in 30 ml of 100 mM Tris-HCl pH 7.4 with 5 mM MgCl2, 0.2% bovine serum albumin and 0.2 mg/ml bacitracin. […] The vials are counted with a gamma counter for one minute and percent inhibition determined from counts/min (CPM) as follows: [formula] The IC50 is determined by plotting percent inhibition v. concentration of compound tested.

[2] = target: T2, angiotensin II receptor, site 1 (Oryctolagus cuniculus, UniProt P34976); assay: Receptor binding assay using rabbit aortae membrane preparation (125I-Sar1 Ile8-angiotensin II), site 1; conditions: rabbit aortae membranes, 37° C., 90 minutes
T2 construct: tissue Pel-Freeze Biologicals; host or cells: rabbit aorta, membranes
T2 sequence (P34976 1-359): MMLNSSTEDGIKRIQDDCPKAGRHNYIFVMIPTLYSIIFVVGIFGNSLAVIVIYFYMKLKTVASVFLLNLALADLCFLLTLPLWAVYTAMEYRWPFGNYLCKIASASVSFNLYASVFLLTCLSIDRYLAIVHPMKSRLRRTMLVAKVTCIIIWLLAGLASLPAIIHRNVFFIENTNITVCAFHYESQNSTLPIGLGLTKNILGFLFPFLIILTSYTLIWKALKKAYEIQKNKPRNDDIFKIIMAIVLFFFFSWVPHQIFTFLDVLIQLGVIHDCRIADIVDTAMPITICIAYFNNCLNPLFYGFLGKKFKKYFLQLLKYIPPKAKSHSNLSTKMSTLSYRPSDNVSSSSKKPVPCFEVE
Experimental: On positive results with rat adrenal gland assay, assays using rabbit aorta may be employed.
Receptor binding assay using rabbit aortae membrane preparation
Three frozen rabbit aortae (obtained from Pel-Freeze Biologicals) were suspended in 5 mM Tris-0.25M Sucrose, pH 7.4 buffer (50 mL) homogenized, and then centifuged. The mixture was filtered through a cheesecloth and the supernatant was centrifuged for 30 minutes at 20,000 rpm at 4° C. The pellet thus obtained was resuspended in 30 mL of 50 mM Tris-5 mM MgCl2 buffer containing 0.2% Bovine Serum Albumin and 0.2 mg/mL Bacitracin and the suspension was used for 100 assay tubes. Samples tested for screening were done in duplicate. To the membrane preparation (0.25 mL) there was added ^125 I-Sar^1 Ile^8 -angiotensin II [obtained from New England Nuclear] ([…]; 20,000 cpm) with or without the test sample and the mixture was incubated at 37° C. for 90 minutes. The mixture was then diluted with ice-cold 50 mM Tris-0.9% NaCl, pH 7.4 (4 mL) and filtered through a glass fiber filter (GF/B Whatman 2.4" diameter). The filter was soaked in scintillation cocktail (10 mL) and counted for radioactivity using Packard 2660 Tricarb liquid scintillation counter. […]

IC50 ([1]; rat adrenal membranes, 37° C., 90 minutes, site 2): 1.62 to 3.24 µM and 1 to 2 µM
IC50 [2]: 25.9 µM
SMILES: CCCCCC1=C(C=O)C2OC(C)(C)C(O)CC23OC3C1=O (stereo not drawn) [Compound A]
antagonist activity at AT-2 receptor sites ([1]; statement in words): antagonist activity at AT-2 receptor sites
